Data: patent publication US9783499B2, “Quinoline derivatives and their applications” (Shenyang Pharmaceutical University, priority 2012, dated 2017)

Key:
Type in all cases: cell-based
Settings in all cases: 72 hours
[1] = system: U87MG (Human malignant glioblastoma cell); test: In vitro anti-tumor cellular activity (MTT), U87MG
Method: (§1) After pouring the cell dissociation buffer to the centrifugetube, nutrient solution was added to stop digestion. The centrifugetube were centrifuged for 10 min under 800 r/min, the liquid supernatant was removed, 5 mL culture solution was added, after mixing by pipetting the cell, took 10 μL cell suspension to the cell counting plat, and adjusted the cell concentration to 10^4/well. Among the 96 wells, A1 is empty, 100 μL of cell suspension were added to the other wells. The 96 well plates were incubated in the incubator for 24 h. […] The 96-well plates were placed in an incubator and cultivated for 72 hours. (3) The culture media containing the compounds in the 96-well plates was discarded, and the cells were washed with phosphate buffered solution (PBS) twice. Each well was added with 100 μL MTT (tetrazole) (0.5 mg/mL), and then placed in an incubator to incubate for 4 hours, after which MTT solution was discarded and 100 μL dimethyl sulfoxide was added thereto.

[2] = system: MDA-MB-231 (human beast cancer cell); test: In vitro anti-tumor cellular activity (MTT), MDA-MB-231
Method: as §1

[3] = system: HT-29 (colon cancer cell); test: In vitro anti-tumor cellular activity (MTT), HT-29
Method: as §1

[4] = system: MKN-45 (human gastric carcinoma cell); test: In vitro anti-tumor cellular activity (MTT), MKN-45
Method: as §1

[5] = system: H460 (human lung cancer cell); test: In vitro anti-tumor cellular activity (MTT), H460
Method: as §1

[6] = system: SMMC-7721 (hepatoma cell); test: In vitro anti-tumor cellular activity (MTT), SMMC-7721
Method: as §1

Row | Molecule | U87MG IC50 [1] | MDA-MB-231 IC50 [2] | HT-29 IC50 [3] | MKN-45 IC50 [4] | H460 IC50 [5] | SMMC-7721 IC50 [6]
1 | COc1cc2c(Oc3ccc(NC(=S)N/N=C/c4ccccc4)cc3F)ccnc2cc1OCCCN1CCOCC1 [Example 38, (E)-N^1-(3-fluoro-4-(6-methoxy-7-(3-(morpholin-4-yl)propoxy)quinoline-4-yloxy)phenyl)-N^4-(benzaldehyde)thiosemicarbazone] | 0.90 µg/mL | 0.18 µg/mL | 0.28 µg/mL | 0.11 µg/mL | 0.16 µg/mL | 1.4 µg/mL
2 | COc1cc2c(Oc3ccc(NC(=S)N/N=C/c4ccccc4)cc3F)ccnc2cc1OCCCN1CCCC1 [Example 36, (E)-N^1-(3-fluoro-4-(6-methoxy-7-(3-(pyrrolidin-1-yl)propoxy)quinoline-4-yloxy)phenyl)-N^4-(benzaldehyde)thiosemicarbazone] | 0.29 µg/mL | 0.048 µg/mL | 0.012 µg/mL | 0.11 µg/mL | 0.034 µg/mL | 0.35 µg/mL
3 | (E)-N^1-(3-fluoro-4-(6-methoxy-7-(3-(piperidin-1-yl)propoxy)quinolin-4-yloxy)phenyl)-N^4-(3,4-difluorobenzylidene)thiosemicarbazide [Example 31] | 0.22 µg/mL | 0.059 µg/mL | 0.013 µg/mL | 0.11 µg/mL | 0.041 µg/mL | 0.39 µg/mL
4 | COc1cc2c(Oc3ccc(NC(=O)N/N=C/c4ccc(Cl)cc4Cl)cc3F)ccnc2cc1OCCCN1CCCC1 [Example 19, (E)-N^1-(3-fluoro-4-(6-methoxy-7-(3-(pyrrolidin-1-yl)propox)quinoline-4-yloxy)phenyl)-N^4-(2,4-dichlorobenzaldehyde)semicarbozone] | 1.9 µg/mL | 1.2 µg/mL | 1.4 µg/mL | 0.71 µg/mL | 0.96 µg/mL | 0.97 µg/mL
5 | COc1cc2c(Oc3ccc(NC(=O)N/N=C/c4ccc(F)c(F)c4)cc3F)ccnc2cc1OCCCN1CCCC1 [Example 22, (E)-N^1-(3-fluoro-4-(6-methoxy-7-(3-(pyrrolidin-1-yl)propoxy)quinoline-4-lyoxy)phenyl)-N^4-(3,4-difluorobenzaldehyde)semicarbazone] | 0.66 µg/mL | 0.31 µg/mL | 0.19 µg/mL | 0.37 µg/mL | 0.29 µg/mL | 1.2 µg/mL
6 | COc1cc2c(Oc3ccc(NC(=S)NN=Cc4ccc(Cl)cc4Cl)cc3F)ccnc2cc1OCCCN1CCN(C)CC1 [Example 40, (E)-N^1-(3-fluoro-4-(6-methoxy-7-(3-(4-methyl-1-piperazinyl)propoxy)quinoline-4-yloxy)phenyl)-N^4-(2,4-dichlorobenzaldehyde)thiosemicarbazone] |  | 1.9 µg/mL | 1.9 µg/mL | 1.5 µg/mL | 2.8 µg/mL | 3.1 µg/mL
7 | COc1cc2c(Oc3ccc(NC(=S)N/N=C/c4ccccc4[N+](=O)[O-])cc3F)ccnc2cc1OCCCN1CCCC1 [Example 32] | 1.2 µg/mL | 0.13 µg/mL | 0.24 µg/mL | 0.33 µg/mL | 0.19 µg/mL | 0.77 µg/mL
8 | (E)-N^1-(3,5-dichlorophenyl)-N^4-(3-fluoro-4-(6-methoxy-7-(3-(piperidin-1-yl)propoxy)quinolin-4-yloxy)benzylidene)thiosemicarbazide [Example 61] | 0.21 µg/mL | 0.092 µg/mL | 0.076 µg/mL | 0.15 µg/mL | 0.054 µg/mL | 0.22 µg/mL
9 | (E)-N^1-(3-fluoro-4-(6-methoxy-7-(3-(piperidin-1-yl)propoxy)quinoline-4-yloxy)phenyl)-N^4-(2-nitrobenzaldehyde)thiosemicarbazone [Example 34] | 0.19 µg/mL | 0.077 µg/mL | 0.076 µg/mL | 0.12 µg/mL | 0.089 µg/mL | 0.24 µg/mL
10 | COc1cc2c(Oc3ccc(NC(=O)N/N=C(\C)c4ccccc4)cc3F)ccnc2cc1OCCCN1CCCCC1 [Example 17, (E)-N^1-(3-fluoro-4-(6-methoxy-7-(3-(piperidin-1-yl)propoxy)quinoline-4-yloxy)phenyl)-N^4-(acetophenone)semicarbazone] | 0.24 µg/mL | 0.071 µg/mL | 0.0057 µg/mL | 0.072 µg/mL | 0.069 µg/mL | 0.13 µg/mL
11 | COc1cc2c(Oc3ccc(C=NNC(=S)Nc4ccc(Cl)c(C(F)(F)F)c4)cc3F)ccnc2cc1OCCCN1CCC(C)CC1 [Example 64, (E)-N^1-[4-chloro-3-(trifluoromethyl)phenyl]-N^4-(3-fluoro-4-(6-methoxy-7-(3-(4-methylpiperidin-1-yl)propoxy)quinoline-4-yloxy)benzaldehyde)thiosemicarbazone] | 1.7 µg/mL | 0.98 µg/mL | 0.34 µg/mL | 0.65 µg/mL | 0.56 µg/mL | 1.0 µg/mL
12 | CCC(=NNC(=O)Nc1ccc(Oc2ccnc3cc(OCCCN4CCCCC4)c(OC)cc23)c(F)c1)c1ccccc1 [Example 30, (E)-N^1-(3-fluoro-4-(6-methoxy-7-(3-(piperidin-1-yl)propoxy)quinoline-4-yloxy)phenyl)-N^4-(propiophenone)thiosemicarbazone] | 0.051 µg/mL | 0.0021 µg/mL |  | 0.0020 µg/mL | 0.0012 µg/mL | 0.44 µg/mL
13 | (E)-N^1-(3-fluoro-4-(6-methoxy-7-(3-(piperidin-1-yl)propoxy)quinoline-4-yloxy)phenyl)-N^4-(2-chloro-4-fluorobenzaldehyde)thiosemicarbazone [Example 43] | 0.092 µg/mL | 0.0029 µg/mL | 0.0031 µg/mL |  | 0.0067 µg/mL | 0.069 µg/mL
14 | COc1cc2c(Oc3ccc(NC(=S)NN=Cc4ccc(F)cc4Cl)cc3F)ccnc2cc1OCCCN1CCN(C)CC1 [Example 42, (E)-N^1-(3-fluoro-4-(6-methoxy-7-(3-(4-methyl-1-piperazinyl)propoxy)quinoline-4-yloxy)phenyl)-N^4-(2-chloro-4-fluorobenzaldehyde)thiosemicarbazone] | 1.0 µg/mL | 0.29 µg/mL |  | 0.34 µg/mL | 0.38 µg/mL | 0.96 µg/mL
15 | (E)-N^1-(3-fluoro-4-(6-methoxy-7-(3-(morpholin-4-yl)propoxy)quinoline-4-oxy)phenyl)-N^4-(3,4-difluorobenzaldehyde)semicarbazone [Example 23] | 5.6 µg/mL | 2.9 µg/mL |  | 5.7 µg/mL | 3.6 µg/mL | 5.9 µg/mL
